IC50 data for 35 compounds are collected here from patent publication US20220298141A1, “ENZYME INHIBITORS” (KALVISTA PHARMACEUTICALS LIMITED, priority 2019, published 2022).

The target of experiment [1] is T1, Human FXIa (Homo sapiens, UniProt P03951).
T1 construct: purchased Enzyme Research Laboratories
Put plainly: Determination of FXIa inhibitory activity in vitro (fluorogenic substrate Z-Gly-Pro-Arg-AFC). Format: biochemical. The note with it: Selectivity, Human FXIa (Enzyme Research Laboratories), 25° C.

The target of experiment [2] is T2, Human Factor XIIa (Homo sapiens, UniProt P00748).
T2 construct: purchased Enzyme Research Laboratories
T2 sequence (P00748 373-615 limits assumed): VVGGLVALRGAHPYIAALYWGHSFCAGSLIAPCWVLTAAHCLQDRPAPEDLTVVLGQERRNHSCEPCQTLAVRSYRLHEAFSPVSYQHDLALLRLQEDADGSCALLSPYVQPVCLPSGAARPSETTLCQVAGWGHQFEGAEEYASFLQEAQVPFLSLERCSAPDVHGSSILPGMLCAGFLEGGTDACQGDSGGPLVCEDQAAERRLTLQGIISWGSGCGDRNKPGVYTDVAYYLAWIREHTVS
T2 sequence (P00748 20-372 partner limits assumed): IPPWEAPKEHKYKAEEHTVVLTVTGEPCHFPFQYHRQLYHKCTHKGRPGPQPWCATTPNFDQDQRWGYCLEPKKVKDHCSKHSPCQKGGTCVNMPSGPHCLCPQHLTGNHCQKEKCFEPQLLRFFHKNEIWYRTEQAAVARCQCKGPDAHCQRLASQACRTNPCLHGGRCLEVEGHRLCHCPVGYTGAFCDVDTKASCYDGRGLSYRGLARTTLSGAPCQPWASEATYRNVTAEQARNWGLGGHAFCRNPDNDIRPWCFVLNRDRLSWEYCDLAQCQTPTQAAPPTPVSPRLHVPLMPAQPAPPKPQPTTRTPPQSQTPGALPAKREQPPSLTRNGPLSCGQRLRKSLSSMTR
Kind of experiment: Determination of Factor XIIa inhibitory activity in vitro (fluorogenic substrate H-DPro-Phe-Arg-AFC). It is filed as biochemical. Particulars: Human Factor XIIa (Enzyme Research Laboratories), 25° C., read-out: Human FXIIa IC50. Put shortly: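 In vitro inhibition of human Factor XIIa (sourced from Enzyme Research Laboratories) was measured by incubating the enzyme at 25° C. with the fluorogenic substrate H-DPro-Phe-Arg-AFC across a range of test compound concentrations. The initial reaction rate, taken as residual enzyme activity, was followed by the […], and IC50 values were calculated.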

T1 sequence (P03951 388-625 limits assumed): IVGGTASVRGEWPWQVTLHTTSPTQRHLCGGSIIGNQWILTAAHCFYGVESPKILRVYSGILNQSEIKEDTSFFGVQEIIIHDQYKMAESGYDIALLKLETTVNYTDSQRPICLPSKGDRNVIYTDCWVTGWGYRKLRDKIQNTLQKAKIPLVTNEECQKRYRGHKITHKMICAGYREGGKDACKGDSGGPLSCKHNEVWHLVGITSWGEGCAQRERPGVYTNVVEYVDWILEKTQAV
T1 sequence (P03951 19-387 partner limits assumed): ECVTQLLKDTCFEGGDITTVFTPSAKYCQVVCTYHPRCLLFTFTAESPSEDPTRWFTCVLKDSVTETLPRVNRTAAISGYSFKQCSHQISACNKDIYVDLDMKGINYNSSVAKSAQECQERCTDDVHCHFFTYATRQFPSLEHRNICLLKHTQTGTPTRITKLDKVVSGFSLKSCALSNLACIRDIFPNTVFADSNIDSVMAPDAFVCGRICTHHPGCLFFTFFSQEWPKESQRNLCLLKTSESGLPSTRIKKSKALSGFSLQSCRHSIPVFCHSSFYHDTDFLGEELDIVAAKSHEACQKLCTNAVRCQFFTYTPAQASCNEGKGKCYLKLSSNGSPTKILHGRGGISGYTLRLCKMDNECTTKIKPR

For orientation: IC50 means the concentration that inhibits the measured activity by half. In the case of `Nc1nccc2cc(CNC(=O)c3ccc(CN4CCN(c5ccncc5)CC4)c(Cl)c3)ccc12` [Example 29.07, N-((1-aminoisoquinolin-6-yl)methyl)-3-chloro-4-((4-(pyridin-4-yl)piperazin-1-yl)methyl)benzamide], the IC50 in experiment [1] was 21 µM; in experiment [2] it was 10 to 40 µM.

For the compound `Cc1cc(C(=O)NCc2ccc3c(N)nccc3c2)c(NCC2CCN(C)CC2)nc1C` [Example 4.21], the values for the IC50 in experiment [1] and in experiment [2] were above 40 µM and 0.3 to 1 µM, respectively.

In the case of `COCCNc1ncc(C(=O)NCc2ccc3c(N)nccc3c2)cc1Cl` [Example 11.29], the IC50 is above 40 µM in experiment [1] and 10 to 40 µM in experiment [2].

As for `CC(C)CN1CCC(Nc2ncc(C(=O)NCc3ccc4c(N)nccc4c3)cc2Cl)CC1` [Example 11.37], the IC50 in experiment [1] was above 40 µM; in experiment [2], 10 to 40 µM.

`CN1CCC(CNc2nc(-c3cccnc3)ccc2C(=O)NCc2ccc3c(N)nccc3c2)CC1` [Example 4.16]: the IC50 is above 40 µM in experiment [1] and 0.3 to 1 µM in experiment [2].

As for `COc1cc2c(N)nccc2cc1CNC(=O)c1nccnc1NCC1CCN(C)CC1` [Example 33.20], the IC50 in experiment [1] was 13.5 µM; in experiment [2], 1 to 3 µM.

With `CN1C(C)(C)CC(Nc2ncc(C(=O)NCc3ccc4c(N)nccc4c3)cc2Cl)CC1(C)C` [Example 11.32], the results for the IC50 in experiment [1] and in experiment [2] were above 40 µM and 10 to 40 µM, respectively.

Take `CS(=O)(=O)N1CCC(Nc2ncc(C(=O)NCc3ccc4c(N)nccc4c3)cc2Cl)CC1` [Example 11.38]: the IC50 in experiment [1] is above 40 µM; in experiment [2], 10 to 40 µM.

Take `CN1CCC(CNc2nccnc2C(=O)NCCc2cnc[nH]2)CC1` [Example 33.06]: the half-inhibitory concentration (IC50) in experiment [1] is 20 µM; in experiment [2], 10 to 40 µM.

`Nc1nccc2cc(CNC(=O)c3cc(Cl)cnc3NCC(=O)N3CCOCC3)ccc12` [Example 1.45]: the IC50 in experiment [1] was above 40 µM; in experiment [2], 10 to 40 µM.

On to `CC(C)N1CCC(Nc2ncc(C(=O)NCc3ccc4c(N)nccc4c3)cc2Cl)CC1` [Example 11.36], for which the IC50 in experiment [1] was above 40 µM; in experiment [2], 3 to 10 µM.

`CS(=O)(=O)N1CCC(CNc2ncc(Cl)cc2C(=O)NCc2ccc3c(N)nccc3c2)CC1` [Example 1.62]: the results for the IC50 in experiment [1] and in experiment [2] were above 40 µM and 3 to 10 µM, respectively.

On to `CCN1CCC(CNc2ncc(Cl)cc2C(=O)NCc2ccc3c(N)nccc3c2)CC1` [Example 1.51, N-((1-aminoisoquinolin-6-yl)methyl)-5-chloro-2-(((1-ethylpiperidin-4-yl)methyl)amino)nicotinamide], for which the concentration for half-maximal inhibition (IC50) in experiment [1] is above 40 µM; in experiment [2], below 0.3 µM.

In the case of `Nc1nccc2cc(CNC(=O)c3cc(Cl)cnc3NC[C@@H]3CCC(=O)N3)ccc12` [Example 1.70], the IC50 is above 40 µM in experiment [1] and 10 to 40 µM in experiment [2].

With `CN1CCN(c2cc(CNc3ncc(Cl)cc3C(=O)NCc3ccc4c(N)nccc4c3)ccn2)CC1` [Example 1.48], the figures for the half-maximal inhibitory concentration (IC50) in experiment [1] and in experiment [2] were above 40 µM and 1 to 3 µM, respectively.

Take `CN1CCC(CNc2cnc(C(=O)NCc3ccc4c(N)nccc4c3)cn2)CC1` [Example 4.05]: the concentration for half-maximal inhibition (IC50) in experiment [1] is above 40 µM; in experiment [2], 3 to 10 µM.

Take `Nc1nccc2cc(CNC(=O)c3nccnc3Nc3ccc(N4CCNCC4)cc3)ccc12` [Example 4.22]: the IC50 is above 40 µM in experiment [1] and 10 to 40 µM in experiment [2].

As to `CC(Nc1ncc(Cl)cc1C(=O)NCc1ccc2c(N)nccc2c1)C1CCN(C)CC1` (stereo not shown) [Example 1.71], the IC50 in experiment [1] was above 40 µM; in experiment [2], 0.3 to 1 µM.

Consider `Cc1ccnc(NCC2CCN(C)CC2)c1C(=O)NCc1ccc2c(N)nccc2c1` [Example 4.14], for which the IC50 was above 40 µM in experiment [1] and 10 to 40 µM in experiment [2].

For `Nc1nccc2cc(CNC(=O)c3cc(Cl)cnc3NCC3CCN(C4CC4)CC3)ccc12` [Example 1.50, N-((1-aminoisoquinolin-6-yl)methyl)-5-chloro-2-(((1-cyclopropylpiperidin-4-yl)methyl)amino)nicotinamide], the IC50 in experiment [1] was above 40 µM; in experiment [2], 0.3 to 1 µM.

For the compound `CN1CCC(CNc2nccnc2C(=O)Nc2ccc3nccnc3c2)CC1` [Example 33.08], the IC50 is above 40 µM in experiment [1] and 10 to 40 µM in experiment [2].

For `Nc1nccc2cc(CNC(=O)c3cc(Cl)cnc3NCC(=O)NC3CCCC3)ccc12` [Example 1.46], the results for the IC50 in experiment [1] and in experiment [2] were above 40 µM and 10 to 40 µM, respectively.

With `CN1CCC(CNc2cncc(C(=O)NCc3ccc4c(N)nccc4c3)n2)CC1` [Example 4.04], the figures for the IC50 in experiment [1] and in experiment [2] were above 40 µM and 1 to 3 µM, respectively.

For the compound `CN1CCc2cc(Nc3nccnc3C(=O)NCc3ccc4c(N)nccc4c3)ccc2C1` [Example 4.24], the IC50 was above 40 µM in experiment [1] and 0.3 to 1 µM in experiment [2].

In the case of `Nc1nccc2cc(CNC(=O)c3cnc(CN4CCN(c5ccncc5)CC4)c(Cl)c3)ccc12` [Example 29.08, N-[(1-amino-6-isoquinolyl)methyl]-5-chloro-6-[[4-(4-pyridyl)piperazin-1-yl]methyl]pyridine-3-carboxamide], the IC50 is above 40 µM in experiment [1] and 10 to 40 µM in experiment [2].

Take `CC(C)N1CCCC(CNc2ncc(Cl)cc2C(=O)NCc2ccc3c(N)nccc3c2)C1` (stereo not shown) [Example 1.64, N-[(1-amino-6-isoquinolyl)methyl]5-chloro-2-[(1-isopropyl-3-piperidyl)methylamino]pyridine-3-carboxamide]: the IC50 was above 40 µM in experiment [1] and 0.3 to 1 µM in experiment [2].

Consider `Cc1ccc(C(=O)NCc2ccc3c(N)nccc3c2)c(NCC2CCN(C)CC2)n1` [Example 4.13], for which the half-inhibitory concentration (IC50) in experiment [1] was above 40 µM; in experiment [2] it was 0.3 to 1 µM.

Regarding `COc1ccc(-n2cc(C(=O)O)nn2)c(CNC(=O)c2nccnc2NCC2CCN(C)CC2)c1F` [Example 33.09, 1-(3-Fluoro-4-methoxy-2-{[(3-{[(1-methylpiperidin-4-yl)methyl]amino}pyrazin-2-yl)formamido]methyl}phenyl)-1,2,3-triazole-4-carboxylic acid], the IC50 in experiment [1] was 33.5 µM; in experiment [2], 10 to 40 µM.

Take `CN1CCC(CNc2nccnc2C(=O)NCc2cc(F)c3c(N)nccc3c2)CC1` [Example 33.19]: the IC50 in experiment [1] is above 40 µM; in experiment [2], 10 to 40 µM.

On to `CN1CCC(Nc2ncc(Cl)cc2C(=O)NCc2ccc3c(N)nccc3c2)CC1` [Example 1.60], for which the IC50 in experiment [1] is above 40 µM; in experiment [2], 1 to 3 µM.

Turning to `Nc1nccc2cc(CNC(=O)c3cc(Cl)cnc3NCC3CCN(Cc4cscn4)CC3)ccc12` [Example 1.65], the half-inhibitory concentration (IC50) in experiment [1] was above 40 µM; in experiment [2], 3 to 10 µM.

With `Nc1nccc2cc(CNC(=O)c3cc(Cl)cnc3NCC3CCN(C4CCOCC4)CC3)ccc12` [Example 1.58], the IC50 in experiment [1] was above 40 µM; in experiment [2], 1 to 3 µM.

For the compound `CN1CCC(CNc2nc(C3CC3)ccc2C(=O)NCc2ccc3c(N)nccc3c2)CC1` [Example 4.17], the IC50 in experiment [1] was above 40 µM; in experiment [2], 1 to 3 µM.

Regarding `CN1C(C)(C)CC(Nc2ncc(Cl)cc2C(=O)NCc2ccc3c(N)nccc3c2)CC1(C)C` [Example 1.47], the IC50 in experiment [1] was above 40 µM; in experiment [2], 1 to 3 µM.

For `CCOC(=O)c1cn(-c2ccc(OC)c(F)c2CNC(=O)c2nccnc2NCC2CCN(C)CC2)nn1` [Example 33.05], the figures for the IC50 in experiment [1] and in experiment [2] were 33.5 µM and 3 to 10 µM, respectively.
